Several values for one entry are separate records, joined by “and”; a condition that tells them apart may be missing. Equal entries are not always repeated. Records with an inconclusive call do not appear.

The values that follow come from PubChem BioAssay AID212 (DTP/NCI, 2004).

The assay concerns BDF1 mice, colon carcinoma 38 sc, T/C %. The assay can be described thus: NCI In Vivo Anticancer Drug Screen. Data for tumor model Colon Carcinoma 38 (subcutaneous) in B6D2F1 (BDF1) mice. The settings on record: endpoint: median tumor weight (est.), higher = larger tumour. As to the method: The antitumor activity of compounds was measured in mice bearing transplantable tumors. Survival or tumor size were measured and the results are expressed as the measurement made in the treated group (T) divided by the measurement made in the vehicle treated control group (C). The tumor model used in this assay is Colon Carcinoma 38 (subcutaneous) in B6D2F1 (BDF1) mice

Setting [1] is: dose: 6.25 mg/kg/injection, schedule: Q07DX002 (ip), vehicle: water.
Setting [2] is: dose: 12.5 mg/kg/injection, schedule: Q07DX002 (ip), vehicle: saline.
Where [3] appears, read: dose: 25.0 mg/kg/injection, schedule: Q07DX002 (ip), vehicle: water.
The mark [4] stands for this setting: dose: 50.0 mg/kg/injection, schedule: Q07DX002 (ip), vehicle: saline.
Where [5] appears, read: dose: 50.0 mg/kg/injection, schedule: Q07DX002 (ip), vehicle: water.
[6] abbreviates: dose: 100.0 mg/kg/injection, schedule: Q07DX002 (ip), vehicle: saline.
Where [7] appears, read: dose: 100.0 mg/kg/injection, schedule: Q07DX002 (ip), vehicle: saline with Tween-80.
Where [8] appears, read: dose: 112.0 mg/kg/injection, schedule: Q07DX002 (ip), vehicle: saline with Tween-80.
Where [9] appears, read: dose: 4.0 mg/kg/injection, schedule: Q07DX002 (ip), vehicle: saline.
Setting [10] is: dose: 8.0 mg/kg/injection, schedule: Q07DX002 (ip), vehicle: saline.
The mark [11] stands for this setting: dose: 16.0 mg/kg/injection, schedule: Q07DX002 (ip), vehicle: saline.
Where [12] appears, read: dose: 32.0 mg/kg/injection, schedule: Q07DX002 (ip), vehicle: saline.
The mark [13] stands for this setting: dose: 64.0 mg/kg/injection, schedule: Q07DX002 (ip), vehicle: saline.

In the case of `O=C(O)C1CSCN1` (stereo not drawn), the T/C runs as follows: (dose: 6.25 mg/kg/injection, schedule: Q07DX002 (ip), vehicle: saline) 110 % of control; under setting [1], 106 % of control; under setting [2], 98 % of control; (dose: 25.0 mg/kg/injection, schedule: Q07DX002 (ip), vehicle: saline) 110 % of control; under setting [3], 114 % of control; under setting [4], 105 % of control. In addition, the T/C reads like this: under setting [5], 87 % of control; under setting [6], 80 % of control.
`COc1cccc2c1C(=O)c1c(O)c3c(c(O)c1C2=O)C[C@@](O)(C(=O)CO)C[C@@H]3OC1CC(OC(C)=O)C(OC(C)=O)C(C)O1` (stereo partly drawn): the T/C was 89 % of control (dose: 3.12 mg/kg/injection, schedule: Q07DX002 (ip), vehicle: distilled water + Tween-80); 88 % of control (dose: 6.25 mg/kg/injection, schedule: Q07DX002 (ip), vehicle: distilled water + Tween-80); 65 % of control (dose: 12.5 mg/kg/injection, schedule: Q07DX002 (ip), vehicle: distilled water + Tween-80); 90 % of control (dose: 25.0 mg/kg/injection, schedule: Q07DX002 (ip), vehicle: distilled water + Tween-80); 62 % of control (dose: 50.0 mg/kg/injection, schedule: Q07DX002 (ip), vehicle: distilled water + Tween-80).
As for `O=C(O)c1ccc(C(=O)O)c(C(=O)O)c1.[NH-]C1CCCCC1[NH-].[Pt+2]`, the T/C is 110 % of control (dose: 1.56 mg/kg/injection, schedule: Q07DX002 (ip), vehicle: sodium bicarbonate); 124 % of control (dose: 3.12 mg/kg/injection, schedule: Q07DX002 (ip), vehicle: sodium bicarbonate); 20 % of control (dose: 3.12 mg/kg/injection, schedule: Q07DX003 (ip), vehicle: sodium bicarbonate); 70 % of control (dose: 6.25 mg/kg/injection, schedule: Q07DX002 (ip), vehicle: sodium bicarbonate); 24 % of control (dose: 6.25 mg/kg/injection, schedule: Q07DX003 (ip), vehicle: sodium bicarbonate); 10 % of control (dose: 12.5 mg/kg/injection, schedule: Q07DX003 (ip), vehicle: sodium bicarbonate). Besides, the T/C runs as follows: (dose: 25.0 mg/kg/injection, schedule: Q07DX002 (ip), vehicle: sodium bicarbonate) 20 % of control and 36 % of control and 44 % of control; (dose: 50.0 mg/kg/injection, schedule: Q07DX002 (ip), vehicle: sodium bicarbonate) 33 % of control.
Regarding `Nc1ccc(S(N)(=O)=O)cc1`, the T/C is 103 % of control under setting [7]; 82 % of control and 100 % of control under setting [8]; 122 % of control (dose: 400.0 mg/kg/injection, schedule: Q07DX002 (ip), vehicle: saline with Tween-80); 76 % of control (dose: 800.0 mg/kg/injection, schedule: Q07DX002 (ip), vehicle: saline with Tween-80); 101 % of control (dose: 1600.0 mg/kg/injection, schedule: Q07DX002 (ip), vehicle: saline with Tween-80); 80 % of control and 84 % of control (dose: 1800.0 mg/kg/injection, schedule: Q07DX002 (ip), vehicle: saline with Tween-80).
As to `CN=C(N)N/N=C(\C)c1ccc2oc3ccc(/C(C)=N/NC(N)=NC)cc3c2c1`, the T/C runs as follows: (dose: 25.0 mg/kg/injection, schedule: Q07DX002 (ip), vehicle: saline with Tween-80) 117 % of control; (dose: 50.0 mg/kg/injection, schedule: Q07DX002 (ip), vehicle: saline with Tween-80) 100 % of control; under setting [7], 66 % of control.
Take `Nc1nc([Se])c2ncn(C3OC(CO)C(O)C3O)c2n1` (stereo not drawn): the T/C under setting [9] was 23 % of control; the T/C (dose: 4.0 mg/kg/injection, schedule: Q07DX002 (ip), vehicle: suspension in saline) is 124 % of control; the T/C (dose: 4.0 mg/kg/injection, schedule: Q07DX003 (ip), vehicle: saline) is 170 % of control; the T/C under setting [10] was 14 % of control; the T/C (dose: 8.0 mg/kg/injection, schedule: Q07DX002 (ip), vehicle: suspension in saline) is 112 % of control and 94 % of control; the T/C (dose: 8.0 mg/kg/injection, schedule: Q07DX003 (ip), vehicle: saline) is 93 % of control. The T/C was 20 % of control under setting [11]; 83 % of control and 86 % of control (dose: 16.0 mg/kg/injection, schedule: Q07DX002 (ip), vehicle: suspension in saline); 113 % of control (dose: 16.0 mg/kg/injection, schedule: Q07DX003 (ip), vehicle: saline); 18 % of control under setting [12]; 92 % of control (dose: 32.0 mg/kg/injection, schedule: Q07DX003 (ip), vehicle: saline); 20 % of control under setting [13]. Also, the T/C (dose: 64.0 mg/kg/injection, schedule: Q07DX002 (ip), vehicle: suspension in saline) is 71 % of control and 92 % of control; the T/C (dose: 64.0 mg/kg/injection, schedule: Q07DX003 (ip), vehicle: saline) is 41 % of control.
As for `C1CN1c1nc(N2CC2)nc(N2CC2)n1`, the T/C is 30 % of control (dose: 0.25 mg/kg/injection, schedule: Q07DX003 (ip), vehicle: saline); 43 % of control (dose: 0.5 mg/kg/injection, schedule: Q07DX003 (ip), vehicle: saline); 36 % of control (dose: 1.0 mg/kg/injection, schedule: Q07DX003 (ip), vehicle: saline).
On to `OCCOCCN1CCN(CCCN2c3ccccc3Sc3ccc(C(F)(F)F)cc32)CC1`, for which the T/C under setting [2] was 94 % of control and the T/C under setting [4] was 99 % of control.
Take `O=C(O)Cc1cccc2c(=O)cc(-c3ccco3)oc12`: the T/C was 74 % of control under setting [4] and 53 % of control under setting [6].
As to `C=C1C(=O)OCC1C(=O)O` (stereo not drawn), the T/C was 290 % of control under setting [9]; 281 % of control under setting [10]; 297 % of control under setting [11]; 278 % of control under setting [12]; 344 % of control under setting [13].
Regarding `CN(C)N=Nc1cn[nH]c1C(N)=O`, the T/C (dose: 6.25 mg/kg/injection, schedule: Q07DX002 (ip), vehicle: Klucel (hydroxypropylcellulose) (HPC)) is 102 % of control.
As for `CC1c2ccccc2Cn2cc3c(c21)C(=O)c1cccc(OP(=O)(O)OCc2ccccc2)c1C3=O` (stereo not drawn), the T/C runs as follows: (dose: 0.5 mg/kg/injection, schedule: Q01DX012 (ip), vehicle: saline with Tween-80) 62 % of control; (dose: 1.0 mg/kg/injection, schedule: Q01DX012 (ip), vehicle: saline with Tween-80) 73 % of control; (dose: 2.0 mg/kg/injection, schedule: Q01DX012 (ip), vehicle: saline with Tween-80) 23 % of control; (dose: 4.0 mg/kg/injection, schedule: Q01DX012 (ip), vehicle: saline with Tween-80) 28 % of control.
As for `Nc1n[n+](-c2ccc(Cl)cc2)no1`, the T/C is, setting by setting: under setting [1], 64 % of control and 78 % of control; (dose: 12.5 mg/kg/injection, schedule: Q07DX002 (ip), vehicle: water) 85 % of control and 87 % of control; under setting [3], 57 % of control; under setting [5], 119 % of control.
With `CCc1ccccc1N1CCN(C(=O)c2cc(OC)c(OC)c(OC)c2)CC1`, the T/C by setting is: (dose: 12.5 mg/kg/injection, schedule: Q07DX003 (ip), vehicle: Klucel (hydroxypropylcellulose) (HPC)) 92 % of control; (dose: 25.0 mg/kg/injection, schedule: Q07DX003 (ip), vehicle: Klucel (hydroxypropylcellulose) (HPC)) 96 % of control; (dose: 50.0 mg/kg/injection, schedule: Q07DX003 (ip), vehicle: Klucel (hydroxypropylcellulose) (HPC)) 47 % of control; (dose: 100.0 mg/kg/injection, schedule: Q07DX003 (ip), vehicle: Klucel (hydroxypropylcellulose) (HPC)) 64 % of control; (dose: 200.0 mg/kg/injection, schedule: Q07DX003 (ip), vehicle: Klucel (hydroxypropylcellulose) (HPC)) 54 % of control; (dose: 400.0 mg/kg/injection, schedule: Q07DX003 (ip), vehicle: Klucel (hydroxypropylcellulose) (HPC)) 13 % of control.
`O=C(Nc1ccccc1)c1c(O)[nH]c(=S)[nH]c1=O`: the T/C was 68 % of control under setting [8] and 51 % of control (dose: 225.0 mg/kg/injection, schedule: Q07DX002 (ip), vehicle: saline with Tween-80).
